# From patent US20220213135A1, “DERIVATIVES OF GLYCERO-MANNO-HEPTOSE PHOSPHATE AND THEIR USE IN MODULATING AN IMMUNE RESPONSE” (Shanghai Yao Yuan Biotechnology Co., Ltd., priority 2019, published 2022)
# How the values were obtained:
# [1] = system: primary mouse hepatocytes (C57/b6); assay: CCL2 and CCL7 gene expression by qPCR in primary mouse hepatocytes treated for 4 hours; type: cell-based; conditions: for CCL7 gene expression, fold change compared to no treatment (PBS) control: Compound 2 2 nanomolar to 200 nanomolar, Compound 1 200 nanomolar and 2 micromolar; for CCL2 gene expression, fold change compared to no treatment (PBS) control: normalized to GAPDH, Compound 2 200 picomolar to 200 nanomolar, Compound 1 up to 2 micromolar
# Method: FIG. 2. Compound 2 has unexpected biological activity in liver cells compared to H1BADP (Compound 1). Primary hepatocytes were isolated from fresh mouse livers of C57/b6 background. Cells were cultured in serum-free medium overnight before treatment with either Compound 1 or Compound 2 for 4 hours. Cells were harvested and mRNA expression analyzed by qPCR.
# The reference compound, referred to herein also as “Compound 1” (HMP1BP) is an intermediate in the H1b-ADP biosynthetic pathway generated by the dephosphorylation of HBP (FIG. 1). Derivatives of Compound 1 were generated and their activities tested in primary mouse hepatocytes (C57/b6). […] Hepatocytes were first isolated from fresh C57/b6 mouse livers, transferred to serum-free medium, and cultured overnight before treatment with Compound 1 or Compound 2 for 4 hours. Liver cells were then harvested, the mRNA isolated and gene expression of C—C motif chemokine ligand 2 (CCL2) and C—C motif chemokine ligand 7 (CCL7) was analyzed by qPCR and presented as fold change compared to a no treatment (PBS) control. Gene expression was normalized to the expression of the housekeeping gene, glyceraldehyde-3-phosphate dehydrogenase (GAPDH). […] In this assay.
# [2] = system: CCL2 and CCL7 gene expression in kidney, esophagus, liver, lung, brain, and stomach; assay: CCL2 and CCL7 gene expression by qPCR in organs of mice after oral gavage; type: in vivo, mouse; conditions: 4 hours
# Method: FIG. 4. Compound 2 activates cytokine expression only in the liver. 8 week old C57 females were administrated Compound 2 by oral gavage in 200 ul of Saline and 1.5% DMSO as diluent. Four hours later, organs were dissected and gene expression of CCL2 and CCL7 was analyzed by qPCR in kidney, esophagus, liver, lung, brain, and stomach.
# In this experiment, CCL7 was expressed more than 50-fold above the PBS control and CCL2 was expressed more than 20-fold above the control.
# [3] = system: hepatitis B virus AAV8-1.3 HBV; assay: AAV8-1.3 HBV mouse model: serum HBV DNA (qPCR), HBsAg and HBeAg (ELISA); type: in vivo; conditions: male C57BL/6 mice, 1 mg/kg per dose, vs PBS
# Method: FIG. 6A-C. Compound 2 reduces hepatitis infection in murine model. Compound 2 was administered (1 mg/kg PO QD) and serum levels of HBV (A), HbsAg (B), or HbeAg (C) were measured after 7 days.
# On day 1, male C57BL/6 mice were intravenously (i.v) injected with hepatitis B virus AAV8-1.3 HBV (1×10^11 v/g) (Beijing Five Plus Molecular Medicine Institute). On day 56 post-injection, each mouse was treated with Compound 2 two times per week (1 mg/kg per dose) or PBS. After seven days of treatment (at day 63 post injection), mouse serum was collected for analysis by qPCR (HBV DNA) and ELISA for Hepatitis B virus surface antigen (HBsAg) and Hepatitis B e-antigen (HBeAg). […] Specifically, the Compound 1 derivatives show tissue-specific liver cell activity and strong induction of cytokine and chemokine genes while also reducing HBV DNA and antigen titers in the serum of infected mice.
# [4] = system: chemokine and cytokine expression in liver cells; assay: Chemokine and cytokine gene expression by qPCR in liver of mice after oral gavage of HMP1BP derivatives; type: in vivo, mouse; conditions: C57 female mice, 1 mg/kg oral gavage
# Method: FIG. 5A-B. Oral administration of HMP1BP derivatives activates chemokine and cytokine expression in liver cells. 8 week old C57 female mice were administered saline or the indicated compounds by oral gavage, Compounds 2-7 (1 mg·kg) (A) or compounds 9, 10 (1 mg/kg), 11, 13 and 14 (0.1 mg/kg) (B) were tested. Four hours after administration of saline or compound, organs were dissected and gene expression was analyzed by qPCR for CCL2, CCL7, CXCL1, CXCL10, IFNb, IL1b, IL6, and TNFa (A) or CCL2 and CCL7 (B).
# Several additional Compound 1 derivatives were tested for cytokine and chemokine gene induction in hepatocytes. […] Mice were treated as described above. Briefly, 8 week-old C57 female mice were separately administered (1 mg/kg) either one of Compounds 2-7 or a saline/DMSO control by oral gavage and 4 hours later the livers were dissected and gene expression analyzed by qPCR. The gene expression results were normalized to GADPH expression. […] The additional genes tested in this experiment are: CXCL1, encoding C—X—C motif chemokine ligand 1; CXCL10, encoding C—X—C motif chemokine ligand 10; IFNb, encoding interferon beta; IL-1b, encoding interleukin 1 beta; IL6, encoding interleukin 6; and TNFα, encoding tumor necrosis factor alpha. […] All the derivatives induced CCL2 and CCL7 more than 20-fold above the control. Compound 2 induced CCL2, CCL7, CXCL10, IFNb, IL6 and TNFα each more than 20-fold.
# ALPK1 = molecular target: T1, ALPK1 (Mus musculus, UniProt Q9CXB8); assay: Liver chemokine gene expression by qPCR in ALPK1 knockout and wildtype mice after oral treatment; type: in vivo; design: from tissue; host or cells: mouse liver (in vivo, wildtype vs ALPK1 knockout mice); conditions: WT mice, oral 0.5 mg/kg, 4 hours, normalized to PBS treated WT mice
# T1 sequence (Q9CXB8 1-1231): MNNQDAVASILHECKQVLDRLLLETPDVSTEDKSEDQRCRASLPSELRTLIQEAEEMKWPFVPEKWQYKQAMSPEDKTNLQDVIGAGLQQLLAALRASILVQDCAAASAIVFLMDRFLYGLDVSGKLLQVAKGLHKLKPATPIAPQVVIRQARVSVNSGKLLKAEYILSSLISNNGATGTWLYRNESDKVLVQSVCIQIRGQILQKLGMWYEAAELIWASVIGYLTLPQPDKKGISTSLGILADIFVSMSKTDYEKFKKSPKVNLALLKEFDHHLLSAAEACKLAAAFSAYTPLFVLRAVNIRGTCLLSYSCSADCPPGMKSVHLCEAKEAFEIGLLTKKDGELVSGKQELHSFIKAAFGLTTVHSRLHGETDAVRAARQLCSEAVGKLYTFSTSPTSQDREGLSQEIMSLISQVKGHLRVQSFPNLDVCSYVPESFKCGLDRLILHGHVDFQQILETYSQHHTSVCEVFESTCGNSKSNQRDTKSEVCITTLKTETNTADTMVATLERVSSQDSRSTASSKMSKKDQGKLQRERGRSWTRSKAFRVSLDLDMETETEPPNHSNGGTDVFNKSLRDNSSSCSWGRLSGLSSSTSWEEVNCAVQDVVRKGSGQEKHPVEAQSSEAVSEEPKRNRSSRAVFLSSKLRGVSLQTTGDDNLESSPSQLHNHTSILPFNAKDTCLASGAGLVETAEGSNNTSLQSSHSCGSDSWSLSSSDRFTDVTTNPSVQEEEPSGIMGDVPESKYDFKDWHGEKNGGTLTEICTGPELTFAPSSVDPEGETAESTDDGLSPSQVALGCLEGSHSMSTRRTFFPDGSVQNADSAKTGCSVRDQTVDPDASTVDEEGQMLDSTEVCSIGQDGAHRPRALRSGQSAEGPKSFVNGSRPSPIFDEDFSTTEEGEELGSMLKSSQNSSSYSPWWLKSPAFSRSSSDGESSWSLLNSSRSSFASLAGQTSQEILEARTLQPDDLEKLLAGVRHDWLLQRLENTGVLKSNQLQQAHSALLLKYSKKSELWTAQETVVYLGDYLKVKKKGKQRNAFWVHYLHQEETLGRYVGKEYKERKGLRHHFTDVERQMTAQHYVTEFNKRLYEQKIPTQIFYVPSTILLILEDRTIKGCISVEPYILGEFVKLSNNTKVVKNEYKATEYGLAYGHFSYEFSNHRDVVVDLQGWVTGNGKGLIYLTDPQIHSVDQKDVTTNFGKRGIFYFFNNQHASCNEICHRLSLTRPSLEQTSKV
# Method: FIG. 3. Compound 2 induces chemokine and cytokine expression via ALPK1. ALPK1 knockout (KO) mice and wildtype (WT) control were treated orally with either PBS or Compound 2 (0.5 mg/kg). Four hours after treatment, livers were dissected for gene expression analysis by qPCR. Expression was normalized to PBS treated WT mice.
# ALPK1 knockout (KO) mice and wildtype (WT) control were treated orally with either PBS or Compound 2 (0.5 mg/kg). Four hours after treatment, livers were dissected for gene expression analysis by qPCR. Expression was normalized to PBS treated WT mice.
# [5] = liver, 8 week-old C57 female mice
# [6] = after seven days of treatment, ELISA
smiles,measurement,setting,value
"O=P(O)(O)O[C@@H]1O[C@H]([C@H](O)CO)[C@@H](O)[C@H](O)[C@@H]1O [Compound 1, (2S,3S,4S,5S,6R)-6-((R)-1,2-dihydroxyethyl)-3,4,5-trihydroxytetrahydro-2H-pyran-2-yl dihydrogen phosphate]",CCL2 gene expression at the highest concentration tested,[1]; 2 micromolar,only similar to that induced by the lowest concentration (200 picomolar) of Compound 2
same,"CCL7 gene expression, fold change compared to no treatment (PBS) control",[1],only a much smaller induction in CCL7 gene expression
same,"CCL2 gene expression, fold change compared to no treatment (PBS) control",[1],did not significantly induces CCL2 expression relative to the PBS control except at the highest concentration tested
"CC(=O)OC[C@H](F)[C@H]1O[C@@H](OP(=O)(Oc2ccccc2)Oc2ccccc2)[C@@H](OC(C)=O)[C@@H](OC(C)=O)[C@@H]1OC(C)=O [Compound 2, (2S,3S,4S,5S,6S)-2-((S)-2-acetoxy-1-fluoroethyl)-6-((diphenoxyphosphoryl)oxy)tetrahydro-2H-pyran-3,4,5-triyl triacetate]",cytokine and chemokine gene expression in other organs,"[2]; kidney, esophagus, lung, brain, stomach",No other organ tissue analyzed showed cytokine and chemokine gene expression
same,CCL2 gene expression above the control,[2]; [5],more than 20 fold
same,CCL7 gene expression above the PBS control,[2]; [5],more than 50 fold
same,HBV DNA copy number in serum,"[3]; after seven days of treatment (day 63 post injection), qPCR",significantly reduced HBV DNA copy number
same,Hepatitis B e-antigen (HBeAg) in serum,[3]; [6],decreased compared to the PBS control
same,Hepatitis B surface antigen (HBsAg) in serum,[3]; [6],decreased compared to the PBS control
same,CCL7 gene induction above the control,[4]; 4 hours (FIG. 5A),more than 20 fold
same,CXCL10 gene induction,[4]; 4 hours (FIG. 5A),more than 20 fold
same,IFNb gene induction,[4]; 4 hours (FIG. 5A),more than 20 fold
same,IL6 gene induction,[4]; 4 hours (FIG. 5A),more than 20 fold
same,TNFα gene induction,[4]; 4 hours (FIG. 5A),more than 20 fold
same,CCL2 gene induction above the control,"[4]; 4 hours, normalized to GADPH (FIG. 5A)",more than 20 fold
same,"expression of CCL2, CCL3, CCL7, and CXCL1 in liver",ALPK1,induce the expression
same,"CCL7 gene expression, fold change compared to no treatment (PBS) control",[1],induced in a dose-dependent manner
same,"CCL2 gene expression, fold change compared to no treatment (PBS) control",[1],significantly induced CCL2 expression in a dose-dependent manner
"CC(=O)OC[C@H](F)C1O[C@@H](OP(=O)(N[C@@H](C)C(=O)OC(C)C)Oc2ccccc2)C(OC(C)=O)[C@@H](OC(C)=O)[C@@H]1OC(C)=O (stereo partly drawn) [Compound 4, (2S,3S,4S,5S,6S)-2-((S)-2-acetoxy-1-fluoroethyl)-6-(((((S)-1-isopropoxy-1-oxopropan-2-yl)amino)(phenoxy)phosphoryl)oxy)tetra-hydro-2H-pyran-3,4,5-triyl triacetate]",IFNb gene induction,[4]; 4 hours (FIG. 5A),strong inductive effect
